This note sets out measurements from US12559529B2, “NPY2 receptor agonists” (Boehringer Ingelheim International GmbH, priority 2019, dated 2026).

pKi: −log10 of the molar value. *1 amine or outer side, *2 acyl side, *3 side chain or, on linkers, in order; H or OH if unused. Where a SMILES comes first, the peptide text is derived from it. Side-chain parts run from the residue outwards. The star is where a group is joined. C18 diacid = O=C(O)CCCCCCCCCCCCCCCCC(=O)*; γGlu = O=C(O)[C@H](CCC(=O)[*:2])N[*:1]; Isovaleryl = CC(C)CC(=O)*; AEEA = NCCOCCOCC(=O)O

For the test, the target named is T1, Human Neuropeptide Y2 Receptor (Homo sapiens, UniProt P49146).
T1 construct: purchased CHEMICON HTS066M
T1 sequence (P49146 1-381): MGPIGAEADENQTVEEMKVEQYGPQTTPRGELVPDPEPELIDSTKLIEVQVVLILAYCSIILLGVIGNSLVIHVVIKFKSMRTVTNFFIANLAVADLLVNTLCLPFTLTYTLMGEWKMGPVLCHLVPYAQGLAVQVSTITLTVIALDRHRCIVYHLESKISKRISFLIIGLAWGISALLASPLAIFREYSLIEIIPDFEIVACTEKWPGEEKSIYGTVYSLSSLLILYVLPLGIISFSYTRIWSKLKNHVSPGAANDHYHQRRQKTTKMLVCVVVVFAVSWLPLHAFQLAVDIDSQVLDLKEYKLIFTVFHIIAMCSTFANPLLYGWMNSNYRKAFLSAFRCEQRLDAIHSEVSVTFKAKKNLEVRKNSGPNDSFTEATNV
The experiment in a line: Radioligand binding competition assay (RLB). The settings on record: Table 3; human 125I-PYY (1-36) 0.02 nM, Y2 receptor membranes; read-out: Ki. Put shortly: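 Competition binding at commercial human NPY Y2 membrane preparations, 0.5 μg protein per well, 2 h incubation at room temperature. Bound and free ligand were separated on GF/C filters and counted; IC50 was fitted by nonlinear regression.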

Broadly, the pKi is −log10 of the Ki, conventionally taken in molar units. In the case of `CC(C)CC(=O)N[C@@H](C)C(=O)N1CCC[C@H]1C(=O)N[C@@H](CCC(=O)O)C(=O)N[C@@H](CCCCNC(=O)COCCOCCNC(=O)COCCOCCNC(=O)CC[C@H](NC(=O)CCCCCCCCCCCCCCCCC(=O)O)C(=O)O)C(=O)N1CCC[C@H]1C(=O)N[C@@H](CCC(=O)O)C(=O)N[C@@H](C)C(=O)N[C@@H](CC(=O)O)C(=O)N[C@@H](CO)C(=O)N[C@@H](CO)C(=O)N1CCC[C@H]1C(=O)N[C@@H](CCC(=O)O)C(=O)N[C@@H](CCC(=O)O)C(=O)N[C@@H](CC(C)C)C(=O)N[C@@H](CCC(N)=O)C(=O)N[C@@H](CCCNC(=N)N)C(=O)N[C@@H](Cc1ccc(O)cc1)C(=O)N[C@@H](Cc1ccc(O)cc1)C(=O)N[C@H](C(=O)N[C@@H](CO)C(=O)N[C@@H](CC(C)C)C(=O)N[C@@H](CCCNC(=N)N)C(=O)N[C@@H](Cc1c[nH]cn1)C(=O)N[C@@H](Cc1ccc(O)cc1)C(=O)N[C@@H](Cc1ccc(O)cc1)C(=O)N[C@@H](CC(N)=O)C(=O)N[C@@H](Cc1c[nH]c2ccccc12)C(=O)N[C@@H](CC(C)C)C(=O)N[C@H](C(=O)N[C@@H](CCCNC(=N)N)C(=O)N[C@@H](CCC(N)=O)C(=O)N[C@@H](CCCNC(=N)N)C(=O)N[C@@H](Cc1ccc(O)cc1)C(N)=O)[C@@H](C)O)C(C)C` [Compound 136, N{alpha-4}-(3-methylbutanoyl)-N{epsilon-7}-[2-(2-{2-[2-(2-{2-[(4S)-4-carboxy-4-(17-carboxyheptadecanamido)butanamido]ethoxy}ethoxy)acetamido]ethoxy}ethoxy)acetamido]-[4A,7K,9E,10A,12S,18Q,22V,28Y,30W,31L]hPYY (4-36)] (Isovaleryl-APEK([AEEA-AEEA-γGlu-C18 diacid])PEADSSPEELQRYYVSLRHYYNWLTRQRY-NH2), the negative-log Ki (pKi) is 9.05. Turning to `CC(C)CC(=O)N[C@@H](C)C(=O)N1CCC[C@H]1C(=O)N[C@@H](C)C(=O)N[C@@H](CCCCNC(=O)COCCOCCNC(=O)COCCOCCNC(=O)CC[C@H](NC(=O)CCCCCCCCCCCCCCCCC(=O)O)C(=O)O)C(=O)N1CCC[C@H]1C(=O)N[C@@H](CCC(=O)O)C(=O)N[C@@H](CCC(=O)O)C(=O)N[C@@H](CC(=O)O)C(=O)N[C@@H](C)C(=O)N[C@@H](CO)C(=O)N1CCC[C@H]1C(=O)N[C@@H](CCC(=O)O)C(=O)N[C@@H](CCC(=O)O)C(=O)N[C@@H](CC(C)C)C(=O)N[C@@H](CCC(N)=O)C(=O)N[C@@H](CCC(N)=O)C(=O)N[C@@H](Cc1ccc(O)cc1)C(=O)N[C@@H](Cc1ccc(O)cc1)C(=O)N[C@H](C(=O)N[C@@H](CO)C(=O)N[C@@H](CC(C)C)C(=O)N[C@@H](CCCNC(=N)N)C(=O)N[C@@H](Cc1c[nH]cn1)C(=O)N[C@@H](Cc1ccc(O)cc1)C(=O)N[C@@H](Cc1ccc(O)cc1)C(=O)N[C@@H](CC(N)=O)C(=O)N[C@@H](Cc1c[nH]c2ccccc12)C(=O)N[C@@H](CC(C)C)C(=O)N[C@H](C(=O)N[C@@H](CCCNC(=N)N)C(=O)N[C@@H](CCC(N)=O)C(=O)N[C@@H](CCCNC(=N)N)C(=O)N[C@@H](Cc1ccc(O)cc1)C(N)=O)[C@@H](C)O)C(C)C` [Compound 138, N{alpha-4}-(3-methylbutanoyl)-N{epsilon-7}-[2-(2-{2-[2-(2-{2-[(4S)-4-carboxy-4-(17-carboxyheptadecanamido)butanamido]ethoxy}ethoxy)acetamido]ethoxy}ethoxy)acetamido]-[4A,6A,7K,9E,18Q,19Q,22V,28Y,30W,31L]hPYY (4-36)], the pKi is 8.85.

With `CC(C)CC(=O)N[C@@H](C)C(=O)N1CCC[C@H]1C(=O)N[C@@H](CCC(=O)O)C(=O)N[C@@H](CCCCNC(=O)COCCOCCNC(=O)COCCOCCNC(=O)CC[C@H](NC(=O)CCCCCCCCCCCCCCCCC(=O)O)C(=O)O)C(=O)N1CCC[C@H]1C(=O)N[C@@H](CCC(=O)O)C(=O)N[C@@H](CCC(=O)O)C(=O)N[C@@H](C)C(=O)N[C@@H](C)C(=O)N[C@@H](CO)C(=O)N1CCC[C@H]1C(=O)N[C@@H](CCC(=O)O)C(=O)N[C@@H](CCC(=O)O)C(=O)N[C@@H](CC(C)C)C(=O)N[C@@H](CCC(N)=O)C(=O)N[C@@H](CCCNC(=N)N)C(=O)N[C@@H](Cc1ccc(O)cc1)C(=O)N[C@@H](Cc1ccc(O)cc1)C(=O)N[C@H](C(=O)N[C@@H](CO)C(=O)N[C@@H](C)C(=O)N[C@@H](CCCNC(=N)N)C(=O)N[C@@H](Cc1c[nH]cn1)C(=O)N[C@@H](Cc1ccc(O)cc1)C(=O)N[C@@H](Cc1ccc(O)cc1)C(=O)N[C@@H](CC(N)=O)C(=O)N[C@@H](Cc1c[nH]c2ccccc12)C(=O)N[C@@H](CC(C)C)C(=O)N[C@H](C(=O)N[C@@H](CCCNC(=N)N)C(=O)N[C@@H](CCC(N)=O)C(=O)N[C@@H](CCCNC(=N)N)C(=O)N[C@@H](Cc1ccc(O)cc1)C(N)=O)[C@@H](C)O)C(C)C` [Compound 141, N{alpha-4}-(3-methylbutanoyl)-N{epsilon-7}-[2-(2-{2-[2-(2-{2-[(4S)-4-carboxy-4-(17-carboxyheptadecanamido)butanamido]ethoxy}ethoxy)acetamido]ethoxy}ethoxy)acetamido]-[4A,7K,9E,11A,18Q,22V,24A,28Y,30W,31L]hPYY (4-36)] (Isovaleryl-APEK([AEEA-AEEA-γGlu-C18 diacid])PEEAASPEELQRYYVSARHYYNWLTRQRY-NH2), the pKi was 8.51. On to `CC(C)CC(=O)N[C@@H](C)C(=O)N1CCC[C@H]1C(=O)N[C@@H](CCC(=O)O)C(=O)N[C@@H](CCCCNC(=O)COCCOCCNC(=O)COCCOCCNC(=O)CC[C@H](NC(=O)CCCCCCCCCCCCCCCCC(=O)O)C(=O)O)C(=O)N1CCC[C@H]1C(=O)N1CCC[C@H]1C(=O)N[C@@H](CCC(=O)O)C(=O)N[C@@H](CCC(=O)O)C(=O)N[C@@H](C)C(=O)N[C@@H](CO)C(=O)N1CCC[C@H]1C(=O)N[C@@H](CCC(=O)O)C(=O)N[C@@H](CCC(=O)O)C(=O)N[C@@H](CC(C)C)C(=O)N[C@@H](CCC(N)=O)C(=O)N[C@@H](CCCNC(=N)N)C(=O)N[C@@H](Cc1ccc(O)cc1)C(=O)N[C@@H](Cc1ccc(O)cc1)C(=O)N[C@H](C(=O)N[C@@H](CO)C(=O)N[C@@H](CC(C)C)C(=O)N[C@@H](CCCNC(=N)N)C(=O)N[C@@H](Cc1c[nH]cn1)C(=O)N[C@@H](Cc1ccc(O)cc1)C(=O)N[C@@H](Cc1ccc(O)cc1)C(=O)N[C@@H](CC(N)=O)C(=O)N[C@@H](Cc1c[nH]c2ccccc12)C(=O)N[C@@H](CC(C)C)C(=O)N[C@H](C(=O)N[C@@H](CCCNC(=N)N)C(=O)N[C@@H](CCC(N)=O)C(=O)N[C@@H](CCCNC(=N)N)C(=O)N[C@@H](Cc1ccc(O)cc1)C(N)=O)[C@@H](C)O)C(C)C` [Compound 142, N{alpha-4}-(3-methylbutanoyl)-N{epsilon-7}-[2-(2-{2-[2-(2-{2-[(4S)-4-carboxy-4-(17-carboxyheptadecanamido)butanamido]ethoxy}ethoxy)acetamido]ethoxy}ethoxy)acetamido]-[4A,7K,9P,11E,18Q,22V,28Y,30W,31L]hPYY (4-36)], for which the negative-log Ki (pKi) was 8.93. The result for `CC(C)CC(=O)N[C@@H](C)C(=O)N1CCC[C@H]1C(=O)N[C@@H](CCC(=O)O)C(=O)N[C@@H](CCCCNC(=O)COCCOCCNC(=O)COCCOCCNC(=O)CC[C@H](NC(=O)CCCCCCCCCCCCCCCCC(=O)O)C(=O)O)C(=O)N[C@@H](C)C(=O)N[C@@H](CCC(=O)O)C(=O)N[C@@H](CCC(=O)O)C(=O)N[C@@H](CC(=O)O)C(=O)N[C@@H](C)C(=O)N[C@@H](CO)C(=O)N1CCC[C@H]1C(=O)N[C@@H](CCC(=O)O)C(=O)N[C@@H](CCC(=O)O)C(=O)N[C@@H](CC(C)C)C(=O)N[C@@H](CCC(N)=O)C(=O)N[C@@H](CCC(N)=O)C(=O)N[C@@H](Cc1ccc(O)cc1)C(=O)N[C@@H](Cc1ccc(O)cc1)C(=O)N[C@H](C(=O)N[C@@H](CO)C(=O)N[C@@H](CC(C)C)C(=O)N[C@@H](CCCNC(=N)N)C(=O)N[C@@H](Cc1c[nH]cn1)C(=O)N[C@@H](Cc1ccc(O)cc1)C(=O)N[C@@H](Cc1ccc(O)cc1)C(=O)N[C@@H](CC(N)=O)C(=O)N[C@@H](Cc1c[nH]c2ccccc12)C(=O)N[C@@H](CC(C)C)C(=O)N[C@H](C(=O)N[C@@H](CCCNC(=N)N)C(=O)N[C@@H](CCC(N)=O)C(=O)N[C@@H](CCCNC(=N)N)C(=O)N[C@@H](Cc1ccc(O)cc1)C(N)=O)[C@@H](C)O)C(C)C` [Compound 144, N{alpha-4}-(3-methylbutanoyl)-N{epsilon-7}-[2-(2-{2-[2-(2-{2-[(4S)-4-carboxy-4-(17-carboxyheptadecanamido)butanamido]ethoxy}ethoxy)acetamido]ethoxy}ethoxy)acetamido]-[4A,7K,8A,9E,18Q,19Q,22V,28Y,30W,31L]hPYY (4-36)] (Isovaleryl-APEK([AEEA-AEEA-γGlu-C18 diacid])AEEDASPEELQQYYVSLRHYYNWLTRQRY-NH2) reads 8.05.
